In patent publication US20030212100A1, “Quinoline derivatives and medicinal use thereof” (priority 2000, published 2003):

What was measured:
Assay type in all cases: cell-based
[1] = system: TNFα transcription (human TNF transcription-controlling region); assay: Inhibition of TNFα production: luciferase under human TNF transcription-controlling region in 3T3-L1 cell strain No. 46; details: 10 μM compound; luciferase activity with DMSO taken as 100 (no hTNF: 40%); 24 hours
From the text: Test for in-vitro Evaluation of the Action of Inhibiting the Production of Tumor Necrosis Factor α (TNFα) Using Lipocytes (Derived from 3T3-L1)
A luciferase gene was bonded to the downstream side of human TNF transcription-controlling region. The resulting material was stably inserted into the chromosomes of 3T3-L1 cells. The thus-obtained cell strain No. 46 was used for evaluation.
The cell strain No. 46 was cultivated according to an ordinary method. Specifically, a bovine serum (Cell Culture Technology, Catalogue No. CC017-502) was added to a Dulbecco's modified Eagle's medium (DMEM) so that the final concentration became 10%. Further, 50 U/ml of penicillin G, 50 ug/ml of streptomycin sulfate and 0.4 mg/ml of G418 were added. In the resulting medium was conducted cultivation in a 5% carbon dioxide gas at 37° C.
The cell strain No. 46 was planted into a PLL (poly L-lysine)-coated 48-well plate. When the cell strain reached confluence and then at least two days passed, the medium was substituted with the above medium containing 9 ng/m of hTNF (Genzyme) and an activity for TNFα transcription was induced. hTNF was added and, simultaneously therewith, a compound of the present invention was added so that the final concentration became 10 μM. 24 hours later, the cells were observed by a microscope. Then, the cells were fused and the luciferase activity was measured according to an ordinary method.
Regarding the activity for TNFα transcription, the luciferase activity when DMSO was added in place of the compound, was taken as 100; and the relative activity when 10 uM of the present compound was added, was shown in Table 1. Incidentally, the relative luciferase activity when no hTNF was added, was 40%.

[2] = target: T1, human PPARα receptor (Homo sapiens, UniProt Q07869); assay: Luciferase reporter assay of PPARα agonist activity (Gal4-PPARα chimera receptor in CV-1 cells); details: luciferase activity with 10 μM Wy-14,643 taken as 100, read-out: PPARα agonist activity, relative activity; for Emax at 0.1 µM: CV-1, 0.1 μM compound; for Emax at 1 µM: CV-1, 1 μM compound; for Emax at 10 µM: CV-1, 10 μM compound
T1 construct: expressed in transfected cells; host or cells: CV-1 cells (pSG5-based expression vector)
T1 sequence (Q07869 167-468): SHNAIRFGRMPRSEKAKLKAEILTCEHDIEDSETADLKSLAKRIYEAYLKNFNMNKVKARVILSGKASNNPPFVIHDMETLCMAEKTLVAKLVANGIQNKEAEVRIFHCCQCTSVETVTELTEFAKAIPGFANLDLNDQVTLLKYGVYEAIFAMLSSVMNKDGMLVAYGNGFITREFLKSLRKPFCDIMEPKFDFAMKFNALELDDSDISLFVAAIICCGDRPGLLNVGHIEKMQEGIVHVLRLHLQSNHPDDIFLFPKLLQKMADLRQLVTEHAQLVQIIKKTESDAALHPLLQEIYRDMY
Method: (§1) Measurement of PPARα Agonist Activity and PPARγ Agonist Activity
(§2) 1. Materials for Assay of Luciferase Using Human PPARα and PPARγ Receptors
(§3) The entire procedure was carried out according to the fundamental methods of genetic engineering and the ordinary method in the yeast one-hybrid or two-hybrid system was applied.
(§4) PGL2-UAS5-TK-luc was prepared as a reporter plasmid carrying a response sequence of Gal4 protein as a basic transcription factor of yeast, an enhancer sequence with five repeat part of UAS, a luciferase gene (luc) under the control of timidine kinase (TK) promoter. Specifically, a DNA fragment encoding a TK promoter (−105/+51) on the downstream side of an enhancer sequence comprising two time repeat of UAS was amplified by PCR using pRL-TK carrying a TK promoter (Promega, Trade name: Catalogue No. E2241) as the template and the primers: […]
(§5) After the fragment was cleaved with XhoI-Hind III, pGL2-UAS2-TK-luc was obtained by inserting the resultant fragment into the XhoI-Hind III site located on the upstream side of a luciferase structural gene on pGL2-Basic vector (Promega, Trade name: Catalogue No. E1641).
(§6) After cleavage of a synthetic DNA as an enhancer sequence comprising three time repeat of Gal4 response sequence (SEQ ID NO: 3): 5′-ATTGGTAC([…])×3 AGATCTCGAC) using KpnI and BgIII was carried out, pGL2-UAS5-TK-luc was prepared by inserting the resulting fragment into the KpnI-BgIIIb site of pGL2-UAS2-TK-luc.
(§7) A vector for expression of a chimera receptor protein, in which a ligand binding region of an internuclear receptor human PPARα or PPARγ receptor was fused with the carboxyl terminal of a DNA binding region of yeast Ga14 protein, was prepared as follows:
(§8) The structural gene of pSG5 (STRATAGENE, Trade Name: Catalogue No. 216201) as the basic expression vector was changed for the chimera receptor except that the promoter-enhancer region was maintained as it was.
(§9) The DNA encoding the ligand binding region of the human PPARα or PPARγ receptor was fused on the downstream side of the DNA encoding the DNA binding region and the amino acid sequence from 1 to 147 positions of Ga14 protein so that their reading frames were fitted and the resulting fused DNA was inserted into pSG5 (trade name) on the down stream side of the promoter-enhancer region. In this step, the DNA sequence was arranged so that a signal for transfer into the nucleus (Ala Pro Lys Lys Lys Arg Lys Val Gly (SEQ ID: No: 4) derived from SV-40T antigen was located on the amino terminal of the ligand binding region of PPARα or PPARγ receptor in order to localize the chimera receptor in the nucleus.
(§10) Based on comparison of the human PPAR receptors described in R. Mukherjee et al., [see J. Steroid Biochem. Molec. Biol., Vol. 51, p157 (1994)] and M. E. Green et al., [see Gene Expression, Vol. 4, p281 (1995))], as the structural gene part used for the ligand binding region PPARα or PPARγ, the human PPARα ligand binding region: Ser167-Tyr468; and the PPARγ ligand binding region: Ser176-Tyr478 were used, which had the same sequences corresponding to Ser204-Tyr506 for human PPARγ1 receptor and human PPARγ2, respectively.
(§11) In order to monitor influence against the basic transcription, an expression vector was prepared which carried a DNA encoding only the DNA binding region and the amino acid sequence from 1 to 147 position of Ga14 protein defective in its PPAR ligand binding region and a signal for transfer into the nucleus of SV-40T-antigen.
(§12) 2. Assay of Luciferase Using Human PPARα or PPARγ Receptor
(§13) CV-1 cells used as a host cell were cultivated according to an ordinary method. Specifically, a fetal bovine serum (Intergent, Catalogue No. 1020-90) was added to a Dulbecco's modified Eagle's medium (DMEM) so that the final concentration became 10%. Further, penicillin G (50 U/ml) and streptomycin sulfate (50 μg/ml) were added. Cultivation was conducted in the resulting medium in a 5% carbon dioxide gas at 37° C. […]

[3] = target: T2, human PPARγ receptor (Homo sapiens, UniProt P37231); assay: Luciferase reporter assay of PPARγ agonist activity (Gal4-PPARγ chimera receptor in CV-1 cells); details: luciferase activity with 1 μM Pioglitazone taken as 100, read-out: PPAR γ agonist activity, relative activity; for Emax at 0.1 µM: CV-1, 0.1 μM compound; for Emax at 1 µM: CV-1, 1 μM compound; for Emax at 10 µM: CV-1, 10 μM compound
T2 construct: corresponding to Ser204-Tyr506 for human PPARγ1 receptor and human PPARγ2; expressed in transfected cells; host or cells: CV-1 cells (pSG5-based expression vector)
T2 sequence (P37231 204-505 limits assumed): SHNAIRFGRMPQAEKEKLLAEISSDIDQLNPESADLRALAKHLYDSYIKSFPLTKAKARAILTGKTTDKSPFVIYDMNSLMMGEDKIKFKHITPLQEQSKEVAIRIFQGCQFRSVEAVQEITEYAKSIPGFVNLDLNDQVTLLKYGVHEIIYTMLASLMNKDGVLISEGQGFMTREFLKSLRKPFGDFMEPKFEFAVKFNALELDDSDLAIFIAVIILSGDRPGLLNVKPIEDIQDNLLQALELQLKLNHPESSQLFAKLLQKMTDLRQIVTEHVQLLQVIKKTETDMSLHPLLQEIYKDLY
Method: as §1, §2, §3, §4, §5, §6, §7, §8, §9, §10, §11, §12, §13

Structure (SMILES) | Activity for TNFα transcription, relative activity [1] | Emax at 0.1 µM [2] [%] | Emax at 1 µM [2] [%] | Emax at 10 µM [2] [%] | Emax at 0.1 µM [3] [%] | Emax at 1 µM [3] [%] | Emax at 10 µM [3] [%]
CCOC(Cc1ccc(OCc2cnc3ccc(OC)cc3c2OC(C)C)cc1)C(N)=O (stereo not shown) [Example 3 (102), 2-ethoxy-3-{[4-(4-isopropoxy-6-methoxyquinoline-3-yl)methyloxy]phenyl}propanoic acid amide] | 71.7 | 0.4 | 0.9 | 8.5 | 74.1 | 114 | 108
CCCCNC(=O)C(Cc1ccc(OCc2cnc3ccc(OC)cc3c2OC(C)C)cc1)OCC (stereo not shown) [Example 4 (104), 2-ethoxy-3-{[4-(4-isopropoxy-6-methoxyquinoline-3-yl)methyloxy]phenyl}propanoic acid N-butylamide] | 64.0 | 0.3 | 0.3 | 0.3 | 0.4 | 1.1 | 14.9
CNC(=O)C(Cc1ccc(OCc2cnc3ccc(OC)cc3c2OC(C)C)cc1)C(C)=O (stereo not shown) [Example 24 (141), 2-{[4-(4-isopropoxy-6-methoxyquinoline-3-yl)methyloxy]phenylmethyl}-3-oxobutanoic acid N-methylamide] | 71.6 | – | – | – | 0.8 | 1.2 | 9.4
COc1ccc2ncc(COc3ccc(C=C(C(C)=O)C(C)=O)cc3)c(OC(C)C)c2c1 [Example 26 (147), 3-{[4-(4-isopropoxy-6-methoxyquinoline-3-yl)methyloxy]phenylmethylene}-2,4-dioxopentane] | 59.0 | – | – | – | 0.1 | 3.7 | 12.8
